These results are taken from patent US9580413B2, “Substituted pyrrolidines as ROS tyrosine kinase inhibitors” (NIPPON SHINYAKU CO., LTD., priority 2012, dated 2017).

The structures appear in SMILES notation. Structures can show the parent of a compound that is named as a salt.

One test addresses T1, ROS tyrosine kinase (Homo sapiens, UniProt P08922).
T1 construct: purchased Carna Biosciences, Inc
Kind of test: ROS tyrosine kinase inhibitory activity test (ELISA). Format: biochemical, humans. The settings on record: 25 μM ATP substrate solution, 30° C., one hour. As to the method:
(§1) 1. Preparation of Test Substance:
(§2) A test substance was dissolved in dimethyl sulfoxide (DMSO) to 10 mM and further diluted with DMSO to concentrations of 100-fold of the concentrations to be measured (100, 10, 1, 0.1, and 0.01 μM). Furthermore, the resultant was diluted with an assay buffer to 20-fold, thereby preparing a solution as a test substance solution. A solution prepared by diluting DMSO with an assay buffer to 20-fold was used as a negative control. A buffer containing 15 mM Tris-Cl (pH 7.5), 0.01 (v/v) % Tween-20, and 1 mM dithiothreitol was used as the assay buffer.
(§3) 2. Measurement of ROS Tyrosine Kinase Activity and JAK2 Tyrosine Kinase Activity:
(§4) The activity was measured by adopting the ELISA method. […] Finally, an ROS kinase or a JAK2 kinase (derived from humans, Carna Biosciences, Inc.) (diluted with the assay buffer to 0.25 nM) was added to the plate at 20 μL per well, and the resulting mixture was stirred. A reaction was performed at 30° C. for one hour. After the plate was washed 4 times with a washing buffer (50 mM Tris-Cl (pH 7.5), 150 mM NaCl, and 0.02 (v/v) % Tween-20), a blocking buffer (0.1% bovine serum albumin, 50 mM Tris-Cl (pH 7.5), 150 mM NaCl, and 0.02 (v/v) % Tween-20) was added to the plate at 150 μL per well, and incubated at 30° C. for 30 minutes. The blocking buffer was then removed, and a horse radish peroxidase-labeled anti-phosphorylated tyrosine antibody (BD Biosciences, Inc.) (diluted with the blocking buffer to 10,000-fold) was added to the plate at 100 μL per well, and the plate was incubated at 30° C. for 30 minutes. After the plate was washed 4 times with the washing buffer, a 3,3′,5,5′-tetramethylbenzidine solution (Sigma-Aldrich Co., Ltd.) was added to the plate at 100 μL per well to develop the color for 10 minutes. The reaction was stopped by adding 0.1 M sulfuric acid at 100 μL per well. An absorbance at 450 nm was measured with a microplate reader (Model 3550, manufactured by BIO-RAD, Benchmark, manufactured by BIO-RAD, or iMARK, manufactured by BIO-RAD).
(§5) 3. Analysis of Measurement Results:
(§6) A non-linear regression analysis was performed for the measured absorbance with an SAS system (SAS Institute Inc.), and a concentration of each of the test substances of inhibiting the ROS tyrosine kinase activity or JAK2 tyrosine kinase activity at 50% (IC50) was calculated. The inhibitory activity (IC50, nM) of each of the test substances against the ROS tyrosine kinase or JAK2 tyrosine kinase is shown in Tables 6 to 8.

Another test has as its target T2, JAK2 tyrosine kinase (Homo sapiens, UniProt O60674).
T2 construct: purchased Carna Biosciences, Inc
Kind of test: JAK2 tyrosine kinase inhibitory activity test (ELISA). The class given is biochemical, humans. The conditions noted are these: 25 μM ATP substrate solution, 30° C., one hour. Here is the method: as §1, §2, §3, §4, §5, §6

For a further test, the target named is T3, FIG-ROS/BaF3 cell (Homo sapiens, UniProt P08922).
T3 construct: fused on or other part: Q9HD26 (Golgi-associated PDZ and coiled-coil motif-containing protein)
Kind of test: Proliferation inhibitory activity test against FIG-ROS/BaF3 cell. The class given is cell-based. The conditions noted are these: 3 days incubation, cell counting kit; read-out: Proliferation inhibitory activity against FIG-ROS/BaF3 cell (IC50). As to the method:
A BaF3 cell which had been transformed by introducing the FIG-ROS fusion gene (derived from U118MG human glioma cell) (FIG-ROS/BaF3 Cell) was prepared on a culture medium, seeded on a 96-well plate in the number of 1×10^3/100 μL per well, and then allowed to stand in a CO2 incubator (at 37° C. and 5% CO2). As the culture medium, 10% FBS (fetal bovine serum)-incorporated RPMI-1640 was used.
2. Proliferation Inhibitory Activity Test:
A test substance was dissolved in dimethyl sulfoxide (DMSO) to 10 mM and further diluted with DMSO to 100-fold to prepare a 100 μM solution. This was diluted with a 1% DMSO-incorporated medium to concentrations of 10-fold of the concentration to be measured (10,000, 1,000, 100, 10, and 1 nM). Each of the medicine solutions was added at 11 μL per well and mixed. To a control having no medicine added thereto, a 1% DMSO-incorporated medium was added, and incubated in a CO2 incubator (at 37° C. and 5% CO2) for 3 days. After completion of the incubation, the number of live cells was counted using a cell counting kit. First of all, each cell counting kit solution was added at 5 μL per well and mixed, and incubated in a CO2 incubator (at 37° C. and 5% CO2) for 4 hours. An absorbance at 450 nm was measured with a microplate reader (Model 3550, manufactured by BIO-RAD, Benchmark, manufactured by BIO-RAD, or iMARK, manufactured by BIO-RAD) with a reference wavelength of 650 nm.
as §5
A non-linear regression analysis was performed for the measured absorbance with an SAS system (SAS Institute Inc.), and a concentration of each of the test substances of inhibiting the cell proliferation at 50% (IC50) was calculated. The proliferation inhibitory activity (IC50, nM) of each of the test substances against the FIG-ROS/BaF3 cell is shown in Table 9.

T1 sequence (P08922 28-2347): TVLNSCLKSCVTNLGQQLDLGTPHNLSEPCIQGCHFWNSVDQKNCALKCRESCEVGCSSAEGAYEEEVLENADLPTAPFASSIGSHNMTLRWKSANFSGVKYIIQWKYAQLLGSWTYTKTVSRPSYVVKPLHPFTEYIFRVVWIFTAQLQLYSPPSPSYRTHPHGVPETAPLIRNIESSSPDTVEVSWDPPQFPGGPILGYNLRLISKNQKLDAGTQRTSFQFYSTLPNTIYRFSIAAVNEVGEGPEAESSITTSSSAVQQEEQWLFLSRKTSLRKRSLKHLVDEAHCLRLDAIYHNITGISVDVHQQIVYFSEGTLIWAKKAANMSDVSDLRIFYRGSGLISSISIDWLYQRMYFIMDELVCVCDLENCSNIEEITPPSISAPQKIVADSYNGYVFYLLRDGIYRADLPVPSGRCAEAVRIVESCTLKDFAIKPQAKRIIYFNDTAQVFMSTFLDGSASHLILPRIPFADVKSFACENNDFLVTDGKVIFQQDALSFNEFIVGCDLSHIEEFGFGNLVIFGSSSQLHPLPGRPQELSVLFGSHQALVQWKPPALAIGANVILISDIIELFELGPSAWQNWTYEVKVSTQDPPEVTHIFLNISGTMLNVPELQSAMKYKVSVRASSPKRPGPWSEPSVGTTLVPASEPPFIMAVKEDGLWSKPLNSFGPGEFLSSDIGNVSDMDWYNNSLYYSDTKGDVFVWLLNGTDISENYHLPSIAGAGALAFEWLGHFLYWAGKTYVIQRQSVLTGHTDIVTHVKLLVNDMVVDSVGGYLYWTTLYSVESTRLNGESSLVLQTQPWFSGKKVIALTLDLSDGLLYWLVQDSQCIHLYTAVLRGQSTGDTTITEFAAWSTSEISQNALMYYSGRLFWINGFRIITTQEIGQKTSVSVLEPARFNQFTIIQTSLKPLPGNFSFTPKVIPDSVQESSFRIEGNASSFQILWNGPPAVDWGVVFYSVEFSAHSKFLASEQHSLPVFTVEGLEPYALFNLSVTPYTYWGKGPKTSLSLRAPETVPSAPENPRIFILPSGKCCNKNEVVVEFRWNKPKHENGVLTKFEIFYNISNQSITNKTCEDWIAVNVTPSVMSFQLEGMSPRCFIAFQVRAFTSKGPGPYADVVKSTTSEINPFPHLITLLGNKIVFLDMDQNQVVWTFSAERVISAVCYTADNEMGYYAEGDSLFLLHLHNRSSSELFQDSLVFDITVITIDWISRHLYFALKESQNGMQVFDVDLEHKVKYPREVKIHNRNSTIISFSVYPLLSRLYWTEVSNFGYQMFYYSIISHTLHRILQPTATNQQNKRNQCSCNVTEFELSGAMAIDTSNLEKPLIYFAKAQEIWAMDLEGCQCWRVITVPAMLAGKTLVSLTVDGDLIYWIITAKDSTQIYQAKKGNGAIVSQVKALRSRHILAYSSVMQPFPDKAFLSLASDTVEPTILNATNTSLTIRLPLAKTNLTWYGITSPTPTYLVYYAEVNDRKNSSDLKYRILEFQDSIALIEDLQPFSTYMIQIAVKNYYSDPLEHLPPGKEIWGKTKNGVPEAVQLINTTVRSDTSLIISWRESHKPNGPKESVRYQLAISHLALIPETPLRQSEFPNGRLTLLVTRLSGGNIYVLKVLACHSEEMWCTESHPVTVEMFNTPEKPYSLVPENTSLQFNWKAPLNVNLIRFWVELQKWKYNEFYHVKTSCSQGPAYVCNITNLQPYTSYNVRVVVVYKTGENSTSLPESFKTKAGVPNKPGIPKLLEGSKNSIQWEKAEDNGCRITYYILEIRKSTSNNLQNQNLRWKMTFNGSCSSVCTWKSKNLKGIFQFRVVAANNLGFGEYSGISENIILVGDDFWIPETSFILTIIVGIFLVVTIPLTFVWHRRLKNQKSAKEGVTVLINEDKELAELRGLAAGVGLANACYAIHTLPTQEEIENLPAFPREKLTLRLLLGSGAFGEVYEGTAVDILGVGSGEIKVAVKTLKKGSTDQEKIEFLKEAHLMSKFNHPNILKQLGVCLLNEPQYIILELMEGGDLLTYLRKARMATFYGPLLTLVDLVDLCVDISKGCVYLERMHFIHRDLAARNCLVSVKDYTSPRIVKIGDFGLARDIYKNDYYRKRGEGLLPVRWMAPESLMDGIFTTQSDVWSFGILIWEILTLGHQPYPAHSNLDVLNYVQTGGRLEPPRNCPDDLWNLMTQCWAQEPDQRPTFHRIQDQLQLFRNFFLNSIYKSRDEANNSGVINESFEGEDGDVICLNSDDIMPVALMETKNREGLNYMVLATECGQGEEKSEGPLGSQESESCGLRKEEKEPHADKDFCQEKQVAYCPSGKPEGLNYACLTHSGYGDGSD
T2 sequence (O60674 whole entry): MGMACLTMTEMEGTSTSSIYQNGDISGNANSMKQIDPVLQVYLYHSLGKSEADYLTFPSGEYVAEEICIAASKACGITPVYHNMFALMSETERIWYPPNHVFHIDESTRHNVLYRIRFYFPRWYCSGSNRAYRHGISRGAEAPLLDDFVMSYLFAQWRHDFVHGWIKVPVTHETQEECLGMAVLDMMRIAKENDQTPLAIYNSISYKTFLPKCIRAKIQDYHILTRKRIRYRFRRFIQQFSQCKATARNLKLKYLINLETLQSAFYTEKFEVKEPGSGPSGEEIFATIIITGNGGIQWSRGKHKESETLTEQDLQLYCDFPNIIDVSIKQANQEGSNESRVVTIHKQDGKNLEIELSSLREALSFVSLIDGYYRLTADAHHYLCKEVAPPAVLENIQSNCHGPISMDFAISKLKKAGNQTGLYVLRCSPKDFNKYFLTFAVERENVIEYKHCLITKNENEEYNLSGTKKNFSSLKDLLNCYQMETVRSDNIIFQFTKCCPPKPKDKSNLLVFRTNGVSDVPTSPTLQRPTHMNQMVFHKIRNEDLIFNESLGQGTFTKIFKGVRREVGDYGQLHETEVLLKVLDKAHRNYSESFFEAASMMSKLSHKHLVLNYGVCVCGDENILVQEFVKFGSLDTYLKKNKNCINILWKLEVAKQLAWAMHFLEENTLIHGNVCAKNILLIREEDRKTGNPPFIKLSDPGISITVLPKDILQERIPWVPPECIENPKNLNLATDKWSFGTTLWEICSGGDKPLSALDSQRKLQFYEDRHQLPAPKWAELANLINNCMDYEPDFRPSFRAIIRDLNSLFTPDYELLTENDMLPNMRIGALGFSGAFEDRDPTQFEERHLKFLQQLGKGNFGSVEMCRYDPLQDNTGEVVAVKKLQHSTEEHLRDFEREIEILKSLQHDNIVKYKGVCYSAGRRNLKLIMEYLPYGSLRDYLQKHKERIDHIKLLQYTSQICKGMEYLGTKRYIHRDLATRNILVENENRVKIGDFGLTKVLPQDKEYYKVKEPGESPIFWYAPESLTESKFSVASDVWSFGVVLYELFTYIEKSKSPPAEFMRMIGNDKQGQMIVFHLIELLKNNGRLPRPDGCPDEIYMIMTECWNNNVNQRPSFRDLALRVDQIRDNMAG

For `Cc1ccc([C@@H]2CCCN2c2cncc(Nc3ncc(C#N)s3)n2)cc1` [Example 1, 2-({6-[(2S)-2-(4-Methylphenyl)pyrrolidin-1-yl]pyrazin-2-yl}amino)-1,3-thiazole-5-carbonitrile hydrochloride], the IC50 stood at 1.6 nM at ROS tyrosine kinase and 76 nM against JAK2 tyrosine kinase. Further, the GI50 at FIG-ROS/BaF3 cell worked out at 2.2 nM.
For the molecule `COc1c(Nc2ncc(C#N)s2)nc(N2CCCC2c2ccc(C)cc2)nc1-c1ccc(C(N)=O)cc1` (centres unmarked) [Example 4, 4-{6-[(5-Cyano-1,3-thiazol-2-yl)amino]-5-methoxy-2-[2-(4-methylphenyl)pyrrolidin-1-yl]pyrimidin-4-yl}benzamide], the IC50 at ROS tyrosine kinase was 35 nM; against JAK2 tyrosine kinase it was > 1000 nM. Also, the GI50 on FIG-ROS/BaF3 cell was 2.6 nM.
The matching figures for `COC(=O)c1cc(Nc2ncc(C#N)s2)nc(N2CCCC2c2ccc(C)cc2)n1` (centres unmarked) [Example 6, Methyl 6-[(5-cyano-1,3-thiazol-2-yl)amino]-2-[2-(4-methylphenyl)pyrrolidin-1-yl]pyrimidine-4-carboxylate]: 7.1 nM, 92 nM and 23 nM.
For the molecule `Cc1ccc(C2CCCN2c2nc(Nc3ncc(C#N)s3)cc(C(=O)O)n2)cc1` (centres unmarked) [Example 7, 6-[(5-Cyano-1,3-thiazol-2-yl)amino]-2-[2-(4-methylphenyl)pyrrolidin-1-yl]pyrimidine-4-carboxylic acid], the IC50 at ROS tyrosine kinase came to 0.6 nM; at JAK2 tyrosine kinase it was 37 nM. For the same molecule, the GI50 on FIG-ROS/BaF3 cell is 83 nM.
In the case of `COc1c(C)nc(N2CCC[C@H]2c2ccc(C)cc2)nc1Nc1ncc(C#N)s1` [Example 9, 2-({5-Methoxy-6-methyl-2-[(2S)-2-(4-methylphenyl)pyrrolidin-1-yl]pyrimidin-4-yl}amino)-1,3-thiazole-5-carbonitrile maleate], the IC50 on ROS tyrosine kinase is 0.6 nM; against JAK2 tyrosine kinase, 500 nM. At FIG-ROS/BaF3 cell, the GI50 amounted to 2.1 nM.
Take `COc1c(Nc2ncc(C#N)s2)nc(N2CCCC2c2ccc(C)cc2)nc1-c1cnco1` (centres unmarked) [Example 11, 2-({5-Methoxy-2-[2-(4-methylphenyl)pyrrolidin-1-yl]-6-(1,3-oxazol-5-yl)pyrimidin-4-yl}amino)-1,3-thiazole-5-carbonitrile]: the IC50 is 2.7 nM against ROS tyrosine kinase and > 1000 nM against JAK2 tyrosine kinase. Moreover, the GI50 on FIG-ROS/BaF3 cell is 2.2 nM.
Take `Cc1ccc(C2CCCN2c2nc(Nc3ncc(C#N)s3)cc(C(=O)N[C@H](C)CO)n2)cc1` (stereo partly drawn) [Example 12, 6-[(5-Cyano-1,3-thiazol-2-yl)amino]-N-[(2R)-1-hydroxypropan-2-yl]-2-[2-(4-methylphenyl)pyrrolidin-1-yl]pyrimidine-4-carboxamide]: the results for the IC50 on ROS tyrosine kinase and at JAK2 tyrosine kinase were 21 nM and 540 nM, respectively. For the same molecule, on FIG-ROS/BaF3 cell, the GI50 was determined as 24 nM.
The matching figures for `COc1c(Nc2ncc(C#N)s2)nc(N2CCCC2c2ccc(C)cc2)nc1-c1ccc(S(C)(=O)=O)cc1` (centres unmarked) [Example 13, 2-({5-Methoxy-2-[2-(4-methylphenyl)pyrrolidin-1-yl]-6-[4-(methylsulfonyl)phenyl]pyrimidin-4-yl}amino)-1,3-thiazole-5-carbonitrile]: 44 nM, ≥ 1000 nM and 3.5 nM.
Consider `Cc1ncc(N2CCCC2c2ccc(Cl)cc2)nc1Nc1ncc(C#N)s1` (centres unmarked) [Example 42, 2-({6-[2-(4-Chlorophenyl)pyrrolidin-1-yl]-3-methylpyrazin-2-yl}amino)-1,3-thiazole-5-carbonitrile], for which the IC50 at ROS tyrosine kinase came out at 1.6 nM; on JAK2 tyrosine kinase, 100 nM.
The corresponding values for `Cc1nc(C2CC2)c(Nc2ncc(C#N)s2)nc1N1CCCC1c1ccc(Cl)cc1` (centres unmarked) [Example 44, 2-({6-[2-(4-Chlorophenyl)pyrrolidin-1-yl]-3-cyclopropyl-5-methylpyrazin-2-yl}amino)-1,3-thiazole-5-carbonitrile] are 13 nM and ≥ 1000 nM.
For `Cc1cccc(C2CCCN2c2cncc(Nc3ncc(C#N)s3)n2)c1` (centres unmarked) [Example 46, 2-({6-[2-(3-Methylphenyl)pyrrolidin-1-yl]pyrazin-2-yl}amino)-1,3-thiazole-5-carbonitrile], the IC50 against ROS tyrosine kinase was found to be 6.4 nM; against JAK2 tyrosine kinase, 280 nM.
`Cc1ccccc1C1CCCN1c1cncc(Nc2ncc(C#N)s2)n1` (centres unmarked) [Example 47, 2-({6-[2-(2-Methylphenyl)pyrrolidin-1-yl]pyrazin-2-yl}amino)-1,3-thiazole-5-carbonitrile]: the figures for the IC50 against ROS tyrosine kinase and at JAK2 tyrosine kinase were 17 nM and 280 nM, respectively.
The corresponding values for `COc1c(Nc2ncc(C#N)s2)nc(N2CCCC2c2ccc(C)cc2)nc1-c1cccnc1F` (centres unmarked) [Example 49, 2-({6-(2-Fluoropyridin-3-yl)-5-methoxy-2-[2-(4-methylphenyl)pyrrolidin-1-yl]pyrimidin-4-yl}amino)-1,3-thiazole-5-carbonitrile] are 52 nM and > 1000 nM.
The matching figures for `Cc1ccc(C2CCCN2c2nc(C)c(C)c(Nc3ncc(C#N)s3)n2)cc1` (centres unmarked) [Example 52, 2-({5,6-Dimethyl-2-[2-(4-methylphenyl)pyrrolidin-1-yl]pyrimidin-4-yl}amino)-1,3-thiazole-5-carbonitrile]: 1.8 nM and 170 nM.
Consider `Cc1cc(-c2ncc(N3CCCC3c3ccc(F)cc3)nc2Nc2ncc(C#N)s2)ccn1` (centres unmarked) [Example 53, 2-({6-[2-(4-Fluorophenyl)pyrrolidin-1-yl]-3-(2-methylpyridin-4-yl)pyrazin-2-yl}amino)-1,3-thiazole-5-carbonitrile], for which the results for the IC50 against ROS tyrosine kinase and against JAK2 tyrosine kinase were 67 nM and > 1000 nM, respectively.
The corresponding values for `COCCn1cc(-c2nc(N3CCC[C@H]3c3ccc(C)cc3)nc(Nc3ncc(C#N)s3)c2OC)cn1` [Example 58, 2-({5-Methoxy-6-[1-(2-methoxyethyl)-1H-pyrazol-4-yl]-2-[(2S)-2-(4-methylphenyl)pyrrolidin-1-yl]pyrimidin-4-yl}amino)-1,3-thiazole-5-carbonitrile] are 2.2 nM and 240 nM.
For `Cc1ccc([C@@H]2CCCN2c2cc(C(N)=O)c(C3CC3)c(Nc3ncc(C#N)s3)n2)cc1` [Example 66, 2-[(5-Cyano-1,3-thiazol-2-yl)amino]-3-cyclopropyl-6-[(2S)-2-(4-methylphenyl)pyrrolidin-1-yl]pyridine-4-carboxamide], the IC50 against ROS tyrosine kinase amounted to 0.84 nM; against JAK2 tyrosine kinase it was 910 nM.
The corresponding values for `Cc1ccc(C2CCCN2c2nc3c(c(Nc4ncc(C#N)s4)n2)CN(S(C)(=O)=O)CC3)cc1` (centres unmarked) [Example 72, 2-({2-[2-(4-Methylphenyl)pyrrolidin-1-yl]-6-(methylsulfonyl)-5,6,7,8-tetrahydropyrido[4,3-d]pyrimidin-4-yl}amino)-1,3-thiazole-5-carbonitrile] are 97 nM and > 1000 nM.
